This is an account of results in ChEMBL document CHEMBL4014333, “Discovery of Small Molecules for Repressing Cap-Independent Translation of Human Vascular Endothelial Growth Factor (hVEGF) as Novel Antitumor Agents” (J Med Chem, 2017).

pKd: −log10 of the molar value. Calls of active or inactive are those of the source. No cut-off for these calls is given here.

Series [1] is filed under the species Homo sapiens. Description: Inhibition of BG4 antibody binding to biotin-labeled human wild type internal ribosome entry site A RNA G-quadruplex at 1.25 to 10 uM after 3 hrs by filter binding assay.
Another series concerns Mus musculus. Briefly: Toxicity in nude Balb/c mouse xenografted with human MCF7 cells assessed as change in body weight at 7.5 mg/kg, ip qd for 20 days. The format is organism-based. The note with it: in vivo, 480 h.
The species entered for a further series is Bos taurus. Description: Binding affinity to calf thymus DNA at 1 uM after 24 hrs by spectrophotometric method.
Series [2] in a line: Binding affinity to biotin-labeled human wild type internal ribosome entry site A RNA G-quadruplex by SPR analysis.
Series [3] can be described thus: Binding affinity to 5'- FAM-labeled human 5'-UGAUGAGUGUGAGGAGGA-3' RNA G-quadruplex after 5 mins by MST analysis.
For series [4], the system named is MCF7. Description: Cytotoxicity against human MCF7 cells after 48 hrs relative to control. It is filed as cell-based. The note with it: mcf7, 48 h.
The species entered for series [5] is Homo sapiens. Briefly: Inhibition of BG4 protein binding to human wild type internal ribosome entry site A RNA G-quadruplex in MCF7 cells transfected with pcDNA3.1-BG4 plasmid at 2.5 to 5 uM after 24 hrs by qRT-PCR analysis. The format is cell-based.
Series [6] is described as follows: Binding affinity to 5'- FAM-labeled wild type human internal ribosome entry site A RNA G-quadruplex after 5 mins by MST analysis.
Series [7] is filed under the species Homo sapiens. Briefly: Binding affinity to internal ribosome entry site A RNA G-quadruplex region of human VEGF-A 5'-UTR at 10 uM by PCR stop assay.
Series [8] concerns MCF7. Briefly: Effect on human wild type internal ribosome entry site A RNA G-quadruplex transcription expressed in human MCF7 cells assessed as Met luciferase gene expression at 0.1875 to 1.5 uM after 20 hrs by RT-PCR analysis. It is filed as functional, cell-based.
Series [9] is described as follows: Binding affinity to 5'- FAM-labeled c-Kit1 G-quadruplex DNA (unknown origin) up to 100 uM after 5 mins by MST analysis.
For series [10], the species on record is Homo sapiens. Briefly: Binding affinity to human 5'-UCGGGCCGGGAGGAGCCGCAGCCGGAA-3' […] at 1 uM after 24 hrs by spectrophotometric method.
The species entered for series [11] is Homo sapiens. Briefly: Binding affinity to internal ribosome entry site A RNA G-quadruplex region of VEGF-A protein in human MDA-MB-231 cells assessed as VEGF-A protein induced cell migration at 3 uM after 24 hrs by MTT dye based Transwell assay relative to control.
Series [12] in a line: Binding affinity to RNA hairpin (unknown origin) at 1 uM after 24 hrs by spectrophotometric method.
Series [13] is filed under the species Homo sapiens. Description: Inhibition of FLAG-labeled BG4 antibody binding to human wild type internal ribosome entry site A RNA G-quadruplex at 1.25 to 10 uM preincubated with RNA followed by antibody addition by pull-down assay.
Series [14] is filed under the species Homo sapiens. Briefly: Destabilization of human 5'-FAM-labeled 5'-UGAUGAGUGUGAGUAGUA-3' RNA up to 10 uM measured after 3 hrs by electrophoresis mobility shift assay.
The species named for series [15] is Homo sapiens. Description: Binding affinity to 5'- FAM-labeled human 5'-UGAUGAGUGUGAGUAGUA-3' RNA at 100 uM after 5 mins by MST analysis.
For series [16], the system named is MCF7. Briefly: Effect on human VEGF-A transcription expressed in human MCF7 cells assessed as Met luciferase gene expression at 0.1875 to 3 uM by RT-PCR analysis. The format is functional, cell-based.
Series [17] can be described thus: Selectivity ratio of Kd for biotin-labeled hairpin DNA (unknown origin) to Kd for biotin-labeled human wild type internal ribosome entry site A RNA G-quadruplex.
For series [18], the system named is MCF7. Description: Antitumor activity against human MCF7 cells xenografted in nude Balb/c mouse assessed as tumor volume at 7.5 mg/kg, ip qd for 20 days (Rvb >700 mm3). It is filed as functional.

For `CCN(CC)CCOc1ccc(Nc2nc(-c3ccccc3NC(=O)CCN3CCN(C)CC3)nc3ccccc23)cc1`, the inhibition entry in the series filed under Homo sapiens [1], in the series filed under Homo sapiens [5] and in the series filed under Homo sapiens [13] was “Active” each time. Also, the Activity result in the series with Mus musculus is “Non-Toxic”; in the series on MCF7 [4], 82.7%; in the series filed under Homo sapiens [11], 25%; in the series with MCF7 [18], <300 mm3. Further, the result (in the series listed under Bos taurus; in the series filed under Homo sapiens [7]; in the series on MCF7 [8]; in the series listed under Homo sapiens [10]; in series [12]; in the series filed under Homo sapiens [14]) was inactive. Further, the outcome in the series filed under Homo sapiens [15] and in the series with MCF7 [16] was inactive. In addition, the results for the pKd in series [2], in series [3] and in [6] were 6.03, 4.69 to 4.87 and 5.89, respectively. Further, the outcome in series [9] was Active. Besides, the Selectivity ratio in [17] turned out to be 23.
